Test results from patent US12213483B1, “Herbicidal compositions comprising trifludimoxazin” (BASF SE, priority 2024, dated 2025).
Several values for one entry are separate records, joined by “and”; a condition that tells them apart may be missing. Equal entries are not always repeated.

What was measured:
Type in all cases: in vivo
[1] = system: Avena fatua (AVEFA); experiment: Post-emergence application in greenhouse trials, AVEFA
Description: (§1) In the examples below, using the method of S. R. Colby (1967) “Calculating synergistic and antagonistic responses of herbicide combinations”, Weeds 15, p. 22ff., the value E, which is expected if the activity of the individual active compounds is only additive, was calculated: E=X+Y−(X·Y/100) • where • X=percent activity using active herbicide A at an application rate a; • Y=percent activity using active trifludimoxazin at an application rate b; • E=expected activity (in %) by A+B at application rates a+b.
(§2) If the value found experimentally is higher than the value E calculated according to Colby, a synergistic effect is present.
(§3) The culture containers used were plastic pots containing loamy sand with approximately 3.0% of humus as substrate. The seeds of the test plants were sown separately for each species.
(§4) For the post-emergence treatment, the test plants were grown to a plant height of from 3 to 15 cm, depending on the plant habit, and only then treated with the active compounds which had been suspended or emulsified in water. To this end, the test plants were either sown directly, and grown in the same containers, or they were first grown separately as seedlings and transplanted into the test containers a few days prior to treatment.
(§5) Depending on the species, the plants were kept at 10-25° C. and 20-35° C., respectively.
(§6) The test period extended over 2 to 4 weeks. During this time, the plants were tended and their response to the individual treatments was evaluated.
(§7) Evaluation was carried out using a scale from 0 to 100. 100 means no emergence of the plants, or complete destruction of at least the above-ground parts, and 0 means no damage or normal course of growth. A good herbicidal activity is given at values of at least 70, and very good herbicidal activity is given at values of at least 85.
(§8) In the greenhouse trials, unless indicated otherwise, herbicide A, trifludimoxazin and saflufenacil were formulated (50 g/I) and applied with addition of 1% MSO (methylated seed oil) as adjuvant. The solvent used was water (200 I/ha).

[2] = system: Cyperus iria (CYPIR); experiment: Post-emergence application in field trials, CYPIR; settings: 3 DAT, height 3-5 cm
Description: as §1, §2
(§9) On field test sites, natural weed infestation or seeded weeds were treated post-emergence of the weeds.
(§10) In the field trials, the weedy plants were treated as indicated below.
(§11) Herbicide A-1 (342 g/I), trifludimoxazin (500 g/I) and saflufenacil (342 g/I) were, together with addition of 1% MSO (methylated seed oil) as adjuvant (unless indicated otherwise), formulated in water as distribution medium as indicated and sprayed with commercial flat fan nozzles.
(§12) In the following experiments, the herbicidal activity for the individual herbicidal compositions (solo and mixture applications) was assessed at the indicated days after treatment (DAT). The assessments for the damage on undesired weeds caused by the composition was carried out using a scale from 0 to 100%, compared to the untreated control plants. Here, 0 means no damage and 100 means complete destruction of the plants.
(§13) Herbicide A-1 (100 g/l) and trifludimoxazin (500 g/l) were, together with addition of 1% MSO (methylated seed oil) as adjuvant (unless indicated otherwise), formulated in water as distribution medium as indicated and sprayed with commercial flat fan nozzles.

[3] = system: Hordeum vulgare (HORVS); experiment: Post-emergence application in field trials, HORVS; settings: water volume 100 l/ha, pre plant burndown, 18 g ai/ha
Description: as §1, §2, §9, §10, §11, §12, §13

[4] = system: Amaranthus palmeri (AMAPA); experiment: Post-emergence application in field trials, AMAPA; settings: 21 DAT; water volume 200 l/ha; 0.25 l/ha Dash MSO Max; pre plant burndown; height 30 cm; B-1 12.5 g ai/ha
Description: as §1, §2, §9, §10, §11, §12, §13

[5] = system: Sorghum halapense (SORHA); experiment: Post-emergence application in greenhouse trials, SORHA
Description: as §1, §2, §3, §4, §5, §6, §7, §8

[6] = system: Brachiaria decumbens (BRADC); experiment: Post-emergence application in greenhouse trials, BRADC; settings: GS 13
Description: as §1, §2, §3, §4, §5, §6, §7, §8

[7] = system: Digitaria sanguinales (DIGSA); experiment: Post-emergence application in greenhouse trials, DIGSA
Description: as §1, §2, §3, §4, §5, §6, §7, §8

[8] = system: Setaria faberi (SETFA); experiment: Post-emergence application in greenhouse trials, SETFA; settings: GS 13
Description: as §1, §2, §3, §4, §5, §6, §7, §8

[9] = system: Lolium multiflorum (LOLMU); experiment: Post-emergence application in greenhouse trials, LOLMU; settings: 20 DAT; growth stage 13; 0.9 g ai/ha
Description: as §1, §2, §3, §4, §5, §6, §7, §8

[10] = system: Commelina benghalensis (COMBE); experiment: Post-emergence application in greenhouse trials, COMBE
Description: as §1, §2, §3, §4, §5, §6, §7, §8

[11] = system: Spermacoce latifolia (BOIFL); experiment: Post-emergence application in field trials, BOIFL; settings: 8 DAT; water volume 200 l/ha; growth stage 12-16; height 3-10 cm; 12.5 g ai/ha
Description: as §1, §2, §9, §10, §11, §12, §13

[12] = system: Avena fatua (AVEFA); experiment: Post-emergence application in field trials, AVEFA; settings: 29 DAT; water volume 100 l/ha; pre plant burndown; growth stage 14-23; height 24-40 cm; 18 g ai/ha
Description: as §1, §2, §9, §10, §11, §12, §13

[13] = system: Erigeron canadensis (ERICA); experiment: Post-emergence application in greenhouse trials, ERICA; settings: 20 DAT; GS 19; B-1 1.1 g ai/ha
Description: as §1, §2, §3
For the post-emergence treatment, the test plants were grown to a plant height of from 3 to 15 cm, depending on the plant habit, and only then treated with the active compounds which had been suspended or emulsified in water. To this end, the test plants were either sown directly, and grown in the same containers, or they were first grown separately as seedlings and transplanted into the test containers a few days prior to treatment. […]
The test period extended over 2 to 4 weeks. During this time, the plants were tended and their response to the individual treatments was evaluated. […]

[14] = system: Setaria viridis (SETVI); experiment: Post-emergence application in greenhouse trials, SETVI
Description: as §1, §2, §3, §4, §5, §6, §7, §8

[15] = 20 DAT, growth stage 14, 0.3 g ai/ha

C#CCN1C(=O)C(F)(F)Oc2cc(F)c(-n3c(=O)n(C)c(=S)n(C)c3=O)cc21 [B-1, trifludimoxazin]
% Herbicidal activity ([1]; 7 DAT, GS 13, B-1 0.2 g ai/ha): 20% | % Herbicidal activity ([1]; 20 DAT, B-1 formulated as 500 g/l, GS 12, B-1 1 g ai/ha): 15% | % Herbicidal activity ([1]; 20 DAT, growth stage 13, 0.9 g ai/ha): 20% | % Herbicidal activity ([2]; water volume 200 l/ha, growth stage 13-14, 25 g ai/ha): 63% | % Herbicidal activity ([2]; water volume 300 l/ha, burndown in fruit plantation (citrus), GS 13-14, B-1 25 g ai/ha): 65% | % Herbicidal activity ([3]; 28 DAT, growth stage 21-24, height 15-37 cm): 0% | % Herbicidal activity ([3]; 29 DAT, growth stage 15-24, height 25-45 cm): 0% | % Herbicidal activity [4]: 20% | % Herbicidal activity ([5]; 7 DAT, B-1 formulated as 500 g/l, GS 14, B-1 1 g ai/ha): 15% | % Herbicidal activity ([5]; 7 DAT, B-1 formulated as 500 g/l, GS 14, B-1 2 g ai/ha): 35% | % Herbicidal activity ([5]; 20 DAT, B-1 formulated as 500 g/l, GS 14, B-1 2 g ai/ha): 30% | % Herbicidal activity ([5]; 20 DAT, GS 14, B-1 0.9 g ai/ha): 65% | % Herbicidal activity ([5]; 20 DAT, GS 14, B-1 1.1 g ai/ha): 65% | % Herbicidal activity [5, 15]: 10% | % Herbicidal activity ([6]; 7 DAT, B-1 formulated as 500 g/l, B-1 1 g ai/ha): 15% | % Herbicidal activity ([6]; 7 DAT, B-1 formulated as 500 g/l, B-1 2 g ai/ha): 15% | % Herbicidal activity ([6]; 7 DAT, B-1 0.2 g ai/ha): 10% | % Herbicidal activity ([6]; 7 DAT, B-1 0.3 g ai/ha): 10% | % Herbicidal activity ([6]; 7 DAT, B-1 0.4 g ai/ha): 10% | % Herbicidal activity ([6]; 7 DAT, B-1 0.8 g ai/ha): 45% | % Herbicidal activity ([6]; 20 DAT, B-1 formulated as 500 g/l, B-1 2 g ai/ha): 10% | % Herbicidal activity ([6]; 20 DAT, B-1 0.3 g ai/ha): 5% | % Herbicidal activity ([7]; 7 DAT, GS 12, B-1 0.3 g ai/ha): 15% and 10% | % Herbicidal activity ([7]; 7 DAT, GS 12, B-1 0.4 g ai/ha): 15% | % Herbicidal activity ([7]; 7 DAT, GS 12, B-1 0.8 g ai/ha): 45% | % Herbicidal activity ([7]; 19 DAT, B-1 formulated as 500 g/l, GS 13, B-1 2 g ai/ha): 40% | % Herbicidal activity ([8]; 7 DAT, B-1 0.9 g ai/ha): 45% | % Herbicidal activity ([8]; 20 DAT, B-1 0.3 g ai/ha): 15% | % Herbicidal activity ([8]; 20 DAT, B-1 0.9 g ai/ha): 70% | % Herbicidal activity [9]: 15% | % Herbicidal activity ([10]; 6 DAT, GS 21, B-1 0.3 g ai/ha): 45% | % Herbicidal activity ([10]; 20 DAT, GS 21, B-1 0.3 g ai/ha): 0% | % Herbicidal activity ([10]; 20 DAT, GS 21, B-1 0.9 g ai/ha): 15% | % Herbicidal activity ([10]; 20 DAT, growth stage 21, 0.3 g ai/ha): 0% | % Herbicidal activity [11]: 68% | % Herbicidal activity [12]: 0% | % Herbicidal activity [13]: 40% | % Herbicidal activity ([14]; 7 DAT, GS 14, B-1 0.3 g ai/ha): 35% | % Herbicidal activity ([14]; 7 DAT, GS 14, B-1 0.8 g ai/ha): 45% | % Herbicidal activity ([14]; 7 DAT, GS 14, B-1 0.9 g ai/ha): 55% | % Herbicidal activity ([14]; 7 DAT, GS 14, B-1 1 g ai/ha): 60% | % Herbicidal activity ([14]; 20 DAT, GS 14, B-1 0.3 g ai/ha): 10% | % Herbicidal activity ([14]; 20 DAT, GS 14, B-1 0.9 g ai/ha): 70% | % Herbicidal activity [14, 15]: 10%
